pIC50: −log10 of the molar value.
test system: M. marinum GFP; type: cell-based, Mycobacterium marinum; conditions: 10 µM; antibiotic assay

| SMILES | M. marinum GFP normalised growth, control=1.00, mean |
| --- | --- |
| CCOc1ccc(-c2nc(CNCCc3ccc(F)cc3)cs2)cc1.O=C(O)C(=O)O [GSK1759150A] | 0.75 |
| Cl.O=C(c1ccco1)N(CCCn1ccnc1)c1nc2c(Cl)cccc2s1 [GSK1788487A] | 0.66 |
| Cn1ccnc1CNCCS(=O)(=O)c1cccc(Nc2ccc(-c3cccc(F)c3)cn2)c1 [GSK1826247A] | 0.98 |
| O=C(NCc1ccc2c(c1)OCO2)c1c(C(F)(F)F)nc2ccccn12 [GSK1829671A] | 0.06 |
| O=C(NCc1ccc(Oc2ccccc2)cc1)c1c(C(F)(F)F)nc2ccccn12 [GSK1829676A] | 0.0321 |
| Cc1ccc2nc(C(F)(F)F)c(C(=O)NCc3ccc(C)o3)n2c1 [GSK1829728A] | 0.10 |
| Cc1ccc2nc(C(F)(F)F)c(C(=O)NCc3cccs3)n2c1 [GSK1829729A] | 0.0432 |

test system: Mtb H37Rv; parameters: method as in Sorrentino et al, 2015; conditions: ref Sorrentino et al, 2015; cited from earlier work

| SMILES | Extracellular MIC90 [µM] |
| --- | --- |
| CCOc1ccc(-c2nc(CNCCc3ccc(F)cc3)cs2)cc1.O=C(O)C(=O)O [GSK1759150A] | 1.1 |
| Cl.O=C(c1ccco1)N(CCCn1ccnc1)c1nc2c(Cl)cccc2s1 [GSK1788487A] | 8.4 |
| Cn1ccnc1CNCCS(=O)(=O)c1cccc(Nc2ccc(-c3cccc(F)c3)cn2)c1 [GSK1826247A] | 4.7 |
| O=C(NCc1ccc2c(c1)OCO2)c1c(C(F)(F)F)nc2ccccn12 [GSK1829671A] | 3.3 |
| O=C(NCc1ccc(Oc2ccccc2)cc1)c1c(C(F)(F)F)nc2ccccn12 [GSK1829676A] | 0.2 |
| Cc1ccc2nc(C(F)(F)F)c(C(=O)NCc3ccc(C)o3)n2c1 [GSK1829728A] | 3.4 |
| Cc1ccc2nc(C(F)(F)F)c(C(=O)NCc3cccs3)n2c1 [GSK1829729A] | 0.9 |

test system: M. marinum in A. castellanii; type: cell-based, Mycobacterium marinum; conditions: 10 µM

| SMILES | A. castellanii / M. marinum normalised growth, control=1.00, mean | Hits A. castellanii/M. marinum assay True/False |
| --- | --- | --- |
| CCOc1ccc(-c2nc(CNCCc3ccc(F)cc3)cs2)cc1.O=C(O)C(=O)O [GSK1759150A] | 0.82 |  |
| Cl.O=C(c1ccco1)N(CCCn1ccnc1)c1nc2c(Cl)cccc2s1 [GSK1788487A] | 1.34 |  |
| Cn1ccnc1CNCCS(=O)(=O)c1cccc(Nc2ccc(-c3cccc(F)c3)cn2)c1 [GSK1826247A] | 1.14 |  |
| O=C(NCc1ccc2c(c1)OCO2)c1c(C(F)(F)F)nc2ccccn12 [GSK1829671A] | 0.66 | FALSE |
| O=C(NCc1ccc(Oc2ccccc2)cc1)c1c(C(F)(F)F)nc2ccccn12 [GSK1829676A] | 0.56 | FALSE |
| Cc1ccc2nc(C(F)(F)F)c(C(=O)NCc3ccc(C)o3)n2c1 [GSK1829728A] | 0.78 | FALSE |
| Cc1ccc2nc(C(F)(F)F)c(C(=O)NCc3cccs3)n2c1 [GSK1829729A] | 0.52 | FALSE |

test system: Mtb H37Rv in THP-1; parameters: method as in Sorrentino et al, 2015; conditions: Mtb H37Rv-infected THP1 cells; ref Sorrentino et al, 2015; cited from earlier work

| SMILES | Intracelullar MIC90 in THP-1 [µM] |
| --- | --- |
| O=C(NCc1ccc2c(c1)OCO2)c1c(C(F)(F)F)nc2ccccn12 [GSK1829671A] | 16.65 |
| O=C(NCc1ccc(Oc2ccccc2)cc1)c1c(C(F)(F)F)nc2ccccn12 [GSK1829676A] | 0.21 |
| Cc1ccc2nc(C(F)(F)F)c(C(=O)NCc3ccc(C)o3)n2c1 [GSK1829728A] | 1.85 |
| Cc1ccc2nc(C(F)(F)F)c(C(=O)NCc3cccs3)n2c1 [GSK1829729A] | 0.61 |

same assay, conditions: THP1 / Mtb H37Rv infection assay; ref Sorrentino et al, 2015; cited from earlier work

| SMILES | Intracelullar MIC90 in THP-1 [µM] |
| --- | --- |
| CCOc1ccc(-c2nc(CNCCc3ccc(F)cc3)cs2)cc1.O=C(O)C(=O)O [GSK1759150A] | 16.65 |
| Cl.O=C(c1ccco1)N(CCCn1ccnc1)c1nc2c(Cl)cccc2s1 [GSK1788487A] | 50 |
| Cn1ccnc1CNCCS(=O)(=O)c1cccc(Nc2ccc(-c3cccc(F)c3)cn2)c1 [GSK1826247A] | 0.61 |
| O=C(NCc1ccc2c(c1)OCO2)c1c(C(F)(F)F)nc2ccccn12 [GSK1829671A] | 16.65 |
| O=C(NCc1ccc(Oc2ccccc2)cc1)c1c(C(F)(F)F)nc2ccccn12 [GSK1829676A] | 0.21 |
| Cc1ccc2nc(C(F)(F)F)c(C(=O)NCc3ccc(C)o3)n2c1 [GSK1829728A] | 1.85 |
| Cc1ccc2nc(C(F)(F)F)c(C(=O)NCc3cccs3)n2c1 [GSK1829729A] | 0.61 |

same assay, conditions: ratio; ref Sorrentino et al, 2015; cited from earlier work

| SMILES | Extracellular MIC90/ Inracellular MIC90 |
| --- | --- |
| CCOc1ccc(-c2nc(CNCCc3ccc(F)cc3)cs2)cc1.O=C(O)C(=O)O [GSK1759150A] | 0.07 |
| Cl.O=C(c1ccco1)N(CCCn1ccnc1)c1nc2c(Cl)cccc2s1 [GSK1788487A] | 0.17 |
| Cn1ccnc1CNCCS(=O)(=O)c1cccc(Nc2ccc(-c3cccc(F)c3)cn2)c1 [GSK1826247A] | 7.7 |
| O=C(NCc1ccc2c(c1)OCO2)c1c(C(F)(F)F)nc2ccccn12 [GSK1829671A] | 0.2 |
| O=C(NCc1ccc(Oc2ccccc2)cc1)c1c(C(F)(F)F)nc2ccccn12 [GSK1829676A] | 0.95 |
| Cc1ccc2nc(C(F)(F)F)c(C(=O)NCc3ccc(C)o3)n2c1 [GSK1829728A] | 1.84 |
| Cc1ccc2nc(C(F)(F)F)c(C(=O)NCc3cccs3)n2c1 [GSK1829729A] | 1.47 |

test system: D. discoideum GFP-ABD; conditions: 10 µM

| SMILES | D. discoideum GFP-ABD normalised growth, control=1.00, mean | D. discoideum GFP-ABD normalised growth, control = 1.00, mean |
| --- | --- | --- |
| CCOc1ccc(-c2nc(CNCCc3ccc(F)cc3)cs2)cc1.O=C(O)C(=O)O [GSK1759150A] | 0.30 |  |
| Cl.O=C(c1ccco1)N(CCCn1ccnc1)c1nc2c(Cl)cccc2s1 [GSK1788487A] | 0.32 |  |
| Cn1ccnc1CNCCS(=O)(=O)c1cccc(Nc2ccc(-c3cccc(F)c3)cn2)c1 [GSK1826247A] | 0.90 |  |
| O=C(NCc1ccc2c(c1)OCO2)c1c(C(F)(F)F)nc2ccccn12 [GSK1829671A] | 1.21 | 1,21 |
| O=C(NCc1ccc(Oc2ccccc2)cc1)c1c(C(F)(F)F)nc2ccccn12 [GSK1829676A] | 0.75 |  |
| Cc1ccc2nc(C(F)(F)F)c(C(=O)NCc3ccc(C)o3)n2c1 [GSK1829728A] | 1.01 | 1,01 |
| Cc1ccc2nc(C(F)(F)F)c(C(=O)NCc3cccs3)n2c1 [GSK1829729A] | 0.86 |  |

test system: M. marinum in BV2 microglial cells; type: cell-based, Mycobacterium marinum; conditions: not given

| SMILES | pIC50 |
| --- | --- |
| CCOc1ccc(-c2nc(CNCCc3ccc(F)cc3)cs2)cc1.O=C(O)C(=O)O [GSK1759150A] | 5.37 |
| Cl.O=C(c1ccco1)N(CCCn1ccnc1)c1nc2c(Cl)cccc2s1 [GSK1788487A] | 5.30 |
| Cn1ccnc1CNCCS(=O)(=O)c1cccc(Nc2ccc(-c3cccc(F)c3)cn2)c1 [GSK1826247A] | 5.11 |
| O=C(NCc1ccc2c(c1)OCO2)c1c(C(F)(F)F)nc2ccccn12 [GSK1829671A] | 5.13 |
| Cc1ccc2nc(C(F)(F)F)c(C(=O)NCc3ccc(C)o3)n2c1 [GSK1829728A] | 5.39 |
| Cc1ccc2nc(C(F)(F)F)c(C(=O)NCc3cccs3)n2c1 [GSK1829729A] | 7.10 |

same assay, conditions: 10 µM

| SMILES | BV2 / M. marinum normalised growth, control=1.00, mean | hit in BV2/M. marinum assay True/False |
| --- | --- | --- |
| CCOc1ccc(-c2nc(CNCCc3ccc(F)cc3)cs2)cc1.O=C(O)C(=O)O [GSK1759150A] | 0.73 |  |
| Cl.O=C(c1ccco1)N(CCCn1ccnc1)c1nc2c(Cl)cccc2s1 [GSK1788487A] | 0.94 |  |
| Cn1ccnc1CNCCS(=O)(=O)c1cccc(Nc2ccc(-c3cccc(F)c3)cn2)c1 [GSK1826247A] | 0.98 |  |
| O=C(NCc1ccc2c(c1)OCO2)c1c(C(F)(F)F)nc2ccccn12 [GSK1829671A] | 0.49 | TRUE |
| O=C(NCc1ccc(Oc2ccccc2)cc1)c1c(C(F)(F)F)nc2ccccn12 [GSK1829676A] | 0.35 | TRUE |
| Cc1ccc2nc(C(F)(F)F)c(C(=O)NCc3ccc(C)o3)n2c1 [GSK1829728A] | 0.43 | TRUE |
| Cc1ccc2nc(C(F)(F)F)c(C(=O)NCc3cccs3)n2c1 [GSK1829729A] | 0.48 | TRUE |

test system: M. marinum luxCDABE; type: cell-based, Mycobacterium marinum; conditions: 10 µM

| SMILES | M. marinum luxCDABE normalised growth, control=1.00, mean | M. marinum luxCDABE normalised growth, control = 1.00, mean |
| --- | --- | --- |
| CCOc1ccc(-c2nc(CNCCc3ccc(F)cc3)cs2)cc1.O=C(O)C(=O)O [GSK1759150A] | 0.37 |  |
| Cl.O=C(c1ccco1)N(CCCn1ccnc1)c1nc2c(Cl)cccc2s1 [GSK1788487A] | 0.09 |  |
| Cn1ccnc1CNCCS(=O)(=O)c1cccc(Nc2ccc(-c3cccc(F)c3)cn2)c1 [GSK1826247A] | 0.00 |  |
| O=C(NCc1ccc2c(c1)OCO2)c1c(C(F)(F)F)nc2ccccn12 [GSK1829671A] | 0.00 | 0,00 |
| O=C(NCc1ccc(Oc2ccccc2)cc1)c1c(C(F)(F)F)nc2ccccn12 [GSK1829676A] | 0.00 | 0,00 |
| Cc1ccc2nc(C(F)(F)F)c(C(=O)NCc3ccc(C)o3)n2c1 [GSK1829728A] | 0.00 | 0,00 |
| Cc1ccc2nc(C(F)(F)F)c(C(=O)NCc3cccs3)n2c1 [GSK1829729A] | 0.00 | 0,00 |

Reference: PMC5834492, “Antimycobacterial drug discovery using Mycobacteria-infected amoebae identifies anti-infectives and new molecular targets” (Scientific Reports, 2018)
